Experiment [1] has as its system S. aureus. As to the kind of experiment: MICs of antimicrobials with small molecule MDR inhibitor (I) and high pH. The experiment is classed as cell-based, Staphylococcus aureus. Particulars: for Potentiation factor (pH 7/(pH 9 + I)): pH 7 vs pH 9 + I. The procedure:
(§1) Determination of minimal inhibitory concentrations (MICs). MICs were determined by serial two-fold dilution of antimicrobials in Mueller-Hinton broth containing chloramphenicol ([…]). […] Around 10^5 cells were inoculated in 1 ml of medium for the test. MICs were read after 18 hours of incubation at 37 C. with aeration. The 50% inhibitory concentration (IC50) was determined by growing cells in microtiter plate wells and reading the optical density after overnight growth at 650 nm.

The subject of experiment [2] is Staphylococcus aureus KLE 820 (norA−). As to the kind of experiment: microbe, parasite or virus in culture. The experiment is classed as cell-based.
Excerpt: Disruption of the norA gene. Chloramphenicol acetyltransferase (CAT) gene was isolated by digesting plasmid pLI50 (10) with Sau3A (New England Biolabs). The CAT gene was cloned into the BamHI site of plasmid pSP72 (Promega) to yield plasmid PCH22. Chromosomal DNA from S. aureus RN4220 was isolated according to the protocol of Qiagen, Inc. Part of the 1050 bp norA gene lacking a 80 bp N-terminus and a 20 bp C-terminus was PCR-amplified from chromosomal DNA using primer A:5′-[…]-[…] and primer B:5′-[…]. This fragment was cloned into the EcoRI/EcoRV site of PCH22 to yield plasmid PCH23. S. aureus were transformed by PCH23 using electroporation (11). Cells were plated on trypticase soy agar (TSA) with chloramphenicol. A transformant colony was picked after 24 hours of incubation at 37 C., regrown, plated on CAM medium and a large colony was picked for further work.
as §1

Experiment [3] deals with Staphylococcus aureus RN 4222 (WT). As to the kind of experiment: MIC determination in wild type S. aureus. As to conditions: for effect of pH 9 on sensitivity / effectiveness: change of pH from 7 to 9. The experiment is classed as cell-based. The procedure: as §1

≈ marks a conversion by molar mass, not a printed value. Where “and” joins values, the source holds several entries; their conditions need not be identical. Identical values can stand only once. Like-named read-outs stand apart in the source and are kept apart here.

`N=C(N)c1ccc(OCCCCCOc2ccc(C(=N)N)cc2)cc1` [Pentamidine]: the MIC in experiment [1] (Staphylococcus aureus, pH 7, read-out: MIC) came to 10 µg/mL (≈ 29.4 µM); in experiment [1] (Staphylococcus aureus, pH 9, read-out: MIC), 0.3 µg/mL (≈ 0.881 µM); in experiment [1] (pH 7 + I (10 μg/mL)) it was 0.33 µg/mL; in experiment [1] (pH 9 + I), 0.02 µg/mL; in experiment [2] (Staphylococcus aureus, pH 7.2, KLE 820 (norA−), pH 7.2), 0.312 µg/mL (≈ 0.918 µM); in experiment [2] (Staphylococcus aureus, pH 9, KLE 820 (norA−), pH 9), 0.0097 µg/mL (≈ 0.0285 µM). In addition, the MIC was 0.01 µg/mL (≈ 0.0294 µM) in experiment [2] (Staphylococcus aureus, pH 9, pH 9 and norA mutation); 0.312 µg/mL (≈ 0.918 µM) in experiment [3] (Staphylococcus aureus, pH 9); 10 µg/mL (≈ 29.4 µM) in experiment [3] (Staphylococcus aureus, RN 4222 (WT), pH 7.2, read-out: MIC). Also, in experiment [1], the “Potentiation factor (pH 7/(pH 9 + I))” value was determined as 500. For the same compound, the “increase in sensitivity, pH 9 combined with norA mutation” value in experiment [2] (norA− at pH 9 vs wild type at neutral pH) is given as 1,000 fold. The “increase in sensitivity by norA mutation” value in experiment [2] (norA− vs wild type) is 30 fold and 33 fold. In addition, the “effect of pH 9 on sensitivity / effectiveness” value in experiment [3] is reported as “significantly increased the effectiveness”.
For Benzalkonium Chloride, the MIC in experiment [1] (pH 7) was 0.67 µg/mL; in experiment [1] (pH 7 + I (10 μg/mL)), 0.08 µg/mL; in experiment [1] (pH 9) it was 0.16 µg/mL; in experiment [1] (pH 9 + I), less than 0.005 µg/mL; in experiment [2] (KLE 820 (norA−), pH 7.2), 0.16 µg/mL; in experiment [2] (KLE 820 (norA−), pH 9), 0.0104 µg/mL. The MIC was determined as 0.67 µg/mL in experiment [3] (RN 4222 (WT), pH 7.2) and 0.08 µg/mL in experiment [3] (RN 4222 (WT), pH 9). Moreover, the figures for the Ratio in experiment [1] (pH 7 vs pH 7 + I) and in experiment [1] (pH 9 vs pH 9 + I) were 8.3 and 32, respectively. Moreover, the “Potentiation factor (pH 7/(pH 9 + I))” value in experiment [1] is 134. Also, the “Sensitivity norA− at pH 9 vs. WT at pH 7.2” value in experiment [2] (norA− at pH 9 vs. WT at pH 7.2) was found to be 64. Also, the “effect of pH 9 on sensitivity / effectiveness” value in experiment [3] is recorded as “significantly increased the effectiveness”.

The record behind these values is patent publication US6410041B1, “Culturing cells in presence of amphipathic weak bases and/or cations and multiple drug resistance inhibitor containing reserpine” (priority 1998, dated 2002).
